Assay results: ChEMBL document CHEMBL5247590, “Novel nitrogen mustard-artemisinin hybrids with potent anti-leukemia action through DNA damage and activation of GPx” (Eur J Med Chem, 2022)

Key:
[1] = system: CCRF-CEM; assay: Antiproliferative activity against human CCRF-CEM cells assessed as cell growth inhibition incubated for 72 hrs by MTT assay; type: functional, cell-based
[2] = system: SH-SY5Y; assay: Antiproliferative activity against human SH-SY5Y cells assessed as cell growth inhibition incubated for 72 hrs by MTT assay; type: functional, cell-based
[3] = system: U-118-MG; assay: Antiproliferative activity against human U-118-MG cells assessed as cell growth inhibition incubated for 72 hrs by MTT assay; type: functional, cell-based
[4] = Antiproliferative activity against human L02 cells assessed as cell growth inhibition incubated for 72 hrs by MTT assay; type: toxicity, cell-based
[5] = system: HL-60; assay: Antiproliferative activity against human HL-60 cells assessed as cell growth inhibition incubated for 72 hrs by MTT assay; type: functional, cell-based; conditions: HL-60, 72 h
[6] = system: K562; assay: Antiproliferative activity against human K562 cells assessed as cell growth inhibition incubated for 72 hrs by MTT assay; type: functional, cell-based; conditions: K562, 72 h
[7] = system: HCT-116; assay: Antiproliferative activity against human HCT-116 cells assessed as cell growth inhibition incubated for 72 hrs by MTT assay; type: functional, cell-based; conditions: HCT-116, 72 h
[8] = system: A549; assay: Antiproliferative activity against human A549 cells assessed as cell growth inhibition incubated for 72 hrs by MTT assay; type: functional, cell-based; conditions: A549, 72 h
[9] = Selectivity index, ratio of IC50 for human L02 cells to IC50 for human CCRF-CEM cells; type: toxicity; conditions: L02 cells and CCRF-CEM cells, read-out: Selectivity Index
[10] = Selectivity index, ratio of IC50 for human HL-60 cells to IC50 for human CCRF-CEM cells
[11] = Selectivity index, ratio of IC50 for human K562 cells to IC50 for human CCRF-CEM cells
[12] = Antitumor activity against human L02 cells assessed as cell growth inhibition; type: toxicity, cell-based
[13] = Antitumor activity against PBMC cells (unknown origin) assessed as cell growth inhibition; type: functional, cell-based; conditions: Homo sapiens
[14] = system: HL-60; assay: Antitumor activity against human HL-60 cells assessed as cell growth inhibition; type: functional, cell-based
[15] = system: Bel-7402; assay: Antitumor activity against human Bel-7402 cells assessed as cell growth inhibition; type: functional, cell-based

Structure (SMILES) | IC50 [1] [µM] | IC50 [2] [µM] | IC50 [3] [µM] | IC50 at 72 h [4] [µM] | IC50 [5] [µM] | IC50 [6] [µM] | IC50 [7] [µM] | IC50 [8] [µM] | selectivity ratio [9] | Selectivity Index [10] | Selectivity Index [11] | IC50 [12] [µM] | IC50 [13] [µM] | IC50 [14] [µM] | IC50 [15] [µM]
C[C@@H]1CC[C@H]2[C@@H](C)C(OC(=O)CCc3ccc(N(CCCl)CCCl)cc3)O[C@@H]3O[C@@]4(C)CC[C@@H]1[C@]32OO4 (stereo not given in full) | 4.13 | > 40 | > 40 | > 40 | 30.4 | 50.2 | 8.08 | > 40 |  |  |  |  |  |  | 
Cc1cc(C(=O)OC[C@@]2(C)O[C@@H]3O[C@@]4(C)CC[C@H]5[C@H](C)CC[C@@H]2[C@@]35OO4)ccc1N(CCCl)CCCl | 0.55 | > 40 | > 40 | 1.87 | 2.97 | 0.589 | 4.22 | 7.03 | 3.37 | 0.63 | 3.18 |  |  |  | 
C=C1C(=O)[C@@]23C(=O)O[C@H]4CCC(C)(C)[C@H]5[C@H](O)OC[C@@]45[C@@H]2CC[C@@H]1[C@H]3OC(=O)c1ccc(N(CCCl)CCCl)cc1 |  |  |  |  |  |  |  |  |  |  |  | > 100 |  |  | 
C[C@@H]1CC[C@@H]2[C@]34OO[C@](C)(CC[C@@H]13)O[C@H]4O[C@]2(C)COC(=O)c1ccccc1N(CCCl)CCCl | 1.48 | 22.1 | > 40 | 7.68 | 0.789 | 9.61 | 11.8 | 5.79 | 5.19 | 9.73 | 0.8 |  |  |  | 
C[C@@H]1CC[C@H]2[C@@H](C)C(OC(=O)CCCc3ccc(N(CCCl)CCCl)cc3)O[C@@H]3O[C@@]4(C)CC[C@@H]1[C@]32OO4 (stereo not given in full) | 1.38 | > 40 | > 40 | > 40 |  |  | 12.3 | 14.9 |  |  |  |  |  |  | 
C[C@@H]1CC[C@@H]2[C@]34OO[C@](C)(CC[C@@H]13)O[C@H]4O[C@]2(C)COC(=O)c1ccc(N(CCCl)CCCl)c(F)c1 | > 40 | > 40 | > 40 | > 40 |  |  | > 40 | > 40 |  |  |  |  |  |  | 
C[C@@H]1CC[C@H]2[C@@H](C)C(OC(=O)c3ccccc3N(CCCl)CCCl)O[C@@H]3O[C@@]4(C)CC[C@@H]1[C@]32OO4 (stereo not given in full) | 3.41 | > 40 | > 40 | 8.24 |  |  | 25.6 | 8.22 |  |  |  |  |  |  | 
COC(=O)[C@H](Cc1ccc(N(CCCl)CCCl)cc1)NC(=O)CCC(=O)OCCCOCCCn1c2c(c3ccccc31)CCN1C(=O)c3ccccc3N(C)[C@H]21 |  |  |  |  |  |  |  |  |  |  |  |  | > 200 | 0.5 | 
C=C1C(=O)[C@]23[C@H](OC(=O)c4ccc(N(CCCl)CCCl)cc4)[C@H]1CC[C@H]2[C@@]12CO[C@@]3(O)[C@@H](O)[C@@H]1C(C)(C)CC[C@@H]2O |  |  |  |  |  |  |  |  |  |  |  | 4.03 |  |  | 0.5
C[C@@H]1CC[C@@H]2[C@]34OO[C@](C)(CC[C@@H]13)O[C@H]4O[C@]2(C)COC(=O)CCc1ccc(N(CCCl)CCCl)cc1 | 8.81 | > 40 | > 40 | > 40 |  |  | 20.8 | > 40 |  |  |  |  |  |  | 
C[C@@H]1CC[C@H]2[C@@H](C)C(OC(=O)c3cccc(N(CCCl)CCCl)c3)O[C@@H]3O[C@@]4(C)CC[C@@H]1[C@]32OO4 (stereo not given in full) | > 40 | > 40 | > 40 | > 40 |  |  |  | 3.24 |  |  |  |  |  |  | 
C[C@@H]1CC[C@H]2[C@@H](C)C(OC(=O)c3ccc(N(CCCl)CCCl)c(F)c3)O[C@@H]3O[C@@]4(C)CC[C@@H]1[C@]32OO4 (stereo not given in full) | 24.7 | > 40 | > 40 | > 40 |  |  | 4.19 | 8.59 |  |  |  |  |  |  | 
C[C@@H]1CC[C@@H]2[C@]34OO[C@](C)(CC[C@@H]13)O[C@H]4O[C@]2(C)COC(=O)c1ccc(N(CCCl)CCCl)cc1 | 4.51 | > 40 | > 40 | > 40 |  |  | 7.96 | 5.24 |  |  |  |  |  |  | 
C[C@@H]1CC[C@@H]2[C@]34OO[C@](C)(CC[C@@H]13)O[C@H]4O[C@]2(C)COC(=O)c1cccc(N(CCCl)CCCl)c1 | > 40 | > 40 | 22.1 | 32 |  |  | 8.42 | > 40 |  |  |  |  |  |  | 
Cc1cc(C(=O)OC2O[C@@H]3O[C@@]4(C)CC[C@H]5[C@H](C)CC[C@@H]([C@H]2C)[C@@]35OO4)ccc1N(CCCl)CCCl (stereo not given in full) | 1.87 | > 40 | > 40 | 5 |  |  | 6.72 | 7.02 |  |  |  |  |  |  | 
COc1cccc2c1C(=O)c1c(O)c3c(c(O)c1C2=O)C[C@@](O)(C(=O)CO)C[C@@H]3O[C@H]1C[C@H](N)[C@H](O)[C@H](C)O1 [DOXORUBICIN] |  | 1.54 |  |  |  |  | 1.88 |  |  |  |  |  |  |  | 
O=C(OCCCOc1ccc(-c2cc(=O)c3c(O)c(O)c(O)cc3o2)cc1)c1ccc(N(CCCl)CCCl)cc1 |  |  |  |  |  |  |  |  |  |  |  | > 50 |  |  | 
C[C@@H]1CC[C@@H]2[C@]34OO[C@](C)(CC[C@@H]13)O[C@H]4O[C@]2(C)COC(=O)CCCc1ccc(N(CCCl)CCCl)cc1 | 25.3 | > 40 | > 40 | > 40 |  |  | > 40 | > 40 |  |  |  |  |  |  | 
C[C@H]1[C@@H](O)O[C@@H]2O[C@@]3(C)CC[C@H]4[C@H](C)CC[C@@H]1[C@@]24OO3 [ARTENIMOL] | 5.13 | > 40 |  | 24.3 | 61.2 | 21.8 | > 40 | > 40 |  |  |  |  |  |  | 
C[C@@H]1CC[C@@H]2[C@]34OO[C@](C)(CC[C@@H]13)O[C@H]4O[C@]2(C)COC(=O)Cc1ccc(N(CCCl)CCCl)cc1 | 3.84 | > 40 | > 40 | > 40 | 20.9 | > 100 | 40 | > 40 |  |  |  |  |  |  | 
O=C(O)CCCc1ccc(N(CCCl)CCCl)cc1 [CHLORAMBUCIL] | 12 | > 40 | > 40 |  | 34.4 | > 100 | > 40 | > 40 | 8.79 | 24.1 | 1.05 |  |  |  | 
C[C@@H]1CC[C@H]2[C@@H](C)C(OC(=O)Cc3ccc(N(CCCl)CCCl)cc3)O[C@@H]3O[C@@]4(C)CC[C@@H]1[C@]32OO4 (stereo not given in full) | 1.57 | > 40 | > 40 | 15.9 | 11.2 | 15.5 | 5.89 | 12.7 |  |  |  |  |  |  | 
